In PMC7254991, “Design and validation of fibroblast activation protein alpha targeted imaging and therapeutic agents” (Theranostics, 2020):

Biological target: T1, fibroblast activation protein alpha (FAP) (Homo sapiens, UniProt Q12884)
T1 construct: human FAP expressed on HEK293 cells (HEK293-hFAP)
T1 sequence (Q12884 1-760): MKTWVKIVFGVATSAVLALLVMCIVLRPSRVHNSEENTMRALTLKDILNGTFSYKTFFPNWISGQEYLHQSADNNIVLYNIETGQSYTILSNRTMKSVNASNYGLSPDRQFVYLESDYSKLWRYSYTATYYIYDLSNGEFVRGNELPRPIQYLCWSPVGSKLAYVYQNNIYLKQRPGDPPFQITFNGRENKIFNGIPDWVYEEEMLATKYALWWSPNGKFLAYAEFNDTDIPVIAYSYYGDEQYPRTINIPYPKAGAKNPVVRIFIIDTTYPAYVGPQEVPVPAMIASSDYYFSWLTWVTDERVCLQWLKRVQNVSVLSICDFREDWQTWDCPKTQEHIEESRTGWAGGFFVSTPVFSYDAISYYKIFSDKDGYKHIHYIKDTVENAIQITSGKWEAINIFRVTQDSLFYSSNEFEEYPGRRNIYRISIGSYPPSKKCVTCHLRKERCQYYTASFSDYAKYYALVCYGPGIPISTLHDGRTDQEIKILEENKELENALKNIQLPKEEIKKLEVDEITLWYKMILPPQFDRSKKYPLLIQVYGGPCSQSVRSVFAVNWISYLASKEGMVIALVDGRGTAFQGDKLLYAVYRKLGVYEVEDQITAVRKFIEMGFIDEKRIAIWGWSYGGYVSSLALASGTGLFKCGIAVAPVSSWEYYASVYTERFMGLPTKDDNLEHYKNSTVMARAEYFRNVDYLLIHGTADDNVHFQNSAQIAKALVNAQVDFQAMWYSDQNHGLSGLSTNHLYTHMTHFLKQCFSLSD
Experiment: competition (excess unlabeled FL) against FL-L1-FITC, FL-L1-S0456 and […]mTc-FL-L3 binding on HEK293-hFAP cells
Format: cell-based

C[C@H](NC(=O)c1ccnc(CN)c1)C(=O)N1CC(F)(F)C[C@H]1C#N [compound 8, FL]
competition (excess unlabeled FL) against FL-L1-FITC, FL-L1-S0456 and 99mTc-FL-L: Blocking of FL-L1-FITC related fluorescence by unlabeled FAP ligand (FL), indicated FAP mediated uptake of FL-L1-FITC in HEK293-hFAP cells
